Legend:
[1] = test system: MCD diet induced NASH mice; test: Plasma metabolomics by LC-MS/MS in MCD diet induced NASH mice; format: in vivo, C57Bl/6 mice; conditions: Silybin 300 mg/kg, * P < 0.05, ** P < 0.01
Description: The plasma sample (200 μL) was thawed on ice for 5 min prior to sample preparation and was mixed with 200 μL of 10 mM N-ethylmaleimide (NEM) in PBS buffer solution and 1000 μL of methanol containing internal standard (I.S.) Phe-d5 in 10 ng/ml. This mixture was incubated at −20° C. for 20 min, and then centrifuged at 12000 rpm for 10 min at 4° C. The supernatant was completely dried under nitrogen flow (Pressure Blowing Concentrator, Tokyo Rikakika, Tokyo, Japan) and reconstituted with distilled water.
LC-MS/MS analysis was performed on A Waters ACQUITY UPLC coupled with a 4000 Q-TRAP mass spectrometer. Chromatographic separation was carried on a Waters X Bridge™ BEH C18 analytical column (2.5 μm, 3.0×100 mm; Waters, Torrance, Calif.) with a mobile phase composed of 0.1% formic acid water (solvent A) and methanol (solvent B) which was running in a gradient program: 0-3.0 min (0%-1% B); 3.0-10.0 min (1-3% B); 10.0-14.0 min (3-50% B); 14.0-18.0 min (50-95% B); 18.0-22.0 min (95-0% B); followed by a 3-min re-equilibration step. The injection volume was 10 μl at 4° C. and flow rate was 0.6 ml/min. Electrospray (ESI) source were used in both positive and negative ion mode. The source parameters were set as follows: gas temperature: 450° C.; the ion spray voltage, ±4500 V; ion source gas 1 (nebulizer gas) 40 psi (N2); ion source gas 2 (auxiliary gas), 40 psi (N2); curtain gas: 20 psi. The MS/MS analysis was acquired in targeted MS/MS (MRM) mode with the collision energy ranging from 10 V to 40 V. All UPLC-MS data were obtained by AB Analyst Software (Version 1.6.2). Table 1 lists the 72 metabolites that are identified in the plasma samples from both AIA and MCD-diet induced NASH animal studies. The intensity of each ion was normalized with respect to peak area of I.S. for each chromatogram prior to multivariate statistical analysis.
The normalized data were exported and further processed by PCA and PLS-DA using a multivariate analysis package SIMCA-P software (Umea, Sweden). Model quality was evaluated based on the relevant values of R^2 and Q^2. Potential markers of interest were extracted from the values of variable importance in the projections (VIP>1), which were constructed from PLS-DA analysis. P values were obtained from Student's t-test (P<0.05). Hierarchical clustering analysis (HCA) was performed using bioinformatics software Multi Experiment Viewer (The Institute of Genomic Research, MA, USA) for visualization and organization of metabolite profiles.
Plasma samples of MCD-diet model were analyzed by LC-MS/MS for better understanding the functional metabolism in NASH model as well as the mechanism of Silybin treatment. […] OPLS-DA (R^2X=0.877, Q^2=0.749) was also used to identify and rank signature metabolites explaining most of the variance of metabolomes among the control, model and treatment group based on VIP scores and/or P value (FIG. 9). Unsupervised hierarchical clustering of this metabolite set classified NASH vs. control mice with 100% accuracy in both cohorts. A 15-metabolite signature with top-ranked VIP scores (VIP>1.0) separated control, model and Silybin treatment groups (p<0.05) was identified in Table 18 that distinguish each groups.

[2] = test system: MCD diet induced NASH mice; test: MCD diet induced NASH mice: body and liver weight, liver histology, serum and liver biomarkers; format: in vivo, C57Bl/6 mice; conditions: for Ballooning (histological score) / Inflammation (histological score) / Steatosis (histological score): MCD diet induced NASH mice, n = 6-8
Description: Male wild-type (WT) mice C57Bl/6 were fed either MCS chow diet (Trophic Animal Feed High-tech Co., Ltd, China 20, #TP 3005GS); MCD diet (Trophic Animal Feed High-tech Co., Ltd, China, #TP 3005G) for 8 weeks. Animals were randomly divided into four groups (n=10): 1) controls, fed a standard control MCS diet; 2) […] fed a high-fat MCD diet; 3) rats fed the MCD diet treated with Silybin (150 mg/kg, oral) and 4) rats fed the MCD diet treated with Silybin (300 mg/kg, oral). Silybin was dissolved with solvent of 35% PEG400: 15% Cremophor EL: 5% ethanol: 45% saline. Body weight was intermittently monitored during the diet-induction period and every two or three days during the intervention period.
At the end of the 8 weeks, mice were sacrificed under ether anesthesia. The liver were immediately removed and weighed. A large portion of liver was snap-frozen in the liquid N2 with remaining tissue was fixed in 10% buffer formalin, processed and embedded in paraffin for histological examination after H&E staining. For evaluation of steatohepatitis, the level of ALT, AST, TG, and TC were determined according to manufacturer's instructions with commercial kits. Moreover, histological assessment and scoring according to standardized criteria were carried out by a pathologist blinded to the study (Kleiner, D. E., et al., Hepatology, 2005, 41(6): p. 1313-21). The cytokines levels in serum were measured using commercially available ELISA kits including TNF-α, and IL-6 as well as SOD.

AIA rats = test: Assessment of liver abnormality and lipid profile in AIA model; format: in vivo, Sprague-Dawley (SD) rats
Description: Serum ALT, AST, ALP, GGT and total bilirubin were measured by automatic biochemical analyzer (Toshiba Corporation, Tokyo, Japan). Lipids profile including TG, TC, HDL-C, LDL-C/vLDL-C and free fatty acids were measured in the serum. After animals were sacrificed, tissues of liver were fixed in 10% formalin solution, cleared in xylene, embedded in paraffin blocks from which 5 micron-thick sections were obtained. Sections were stained with H&E dye and examined for pathological changes under light microscope by a pathologist blind to the specimens.

[3] = MCD diet NASH mice, versus vehicle treated MCD diet model group

Structure (SMILES): COc1cc([C@H]2Oc3cc([C@H]4Oc5cc(O)cc(O)c5C(=O)[C@@H]4O)ccc3O[C@@H]2CO)ccc1O (stereo in doubt) [Silybin]
- Trend SB300 VS Model: Malondialdehyde (MDA) [1]: ↓**
- Trend SB300 VS Model: 4-(2-aminophenyl)-2,4-dioxobutanoic acid ([1]; plasma): ↓*
- Trend SB300 VS Model: 5-hydroxytryptamine ([1]; plasma): ↓**
- Trend SB300 VS Model: GSH ([1]; plasma): ↑*
- Trend SB300 VS Model: GSH/GSSG ([1]; plasma): ↑*
- Trend SB300 VS Model: GSSG ([1]; plasma): ↓*
- Trend SB300 VS Model: Glycochenodeoxycholic acid(GCDCA) ([1]; plasma): ↓*
- Trend SB300 VS Model: L-Kynurenine ([1]; plasma): ↑**
- Trend SB300 VS Model: LPC(16:1) ([1]; plasma): ↓*
- Trend SB300 VS Model: LPC(18:0) ([1]; plasma): ↑*
- Trend SB300 VS Model: LPC(20:1) ([1]; plasma): ↑*
- Trend SB300 VS Model: LPC(22:6) ([1]; plasma): ↑*
- Trend SB300 VS Model: N-Phenylacetylglycine ([1]; plasma): ↓*
- Trend SB300 VS Model: Ophthalmic acid ([1]; plasma): ↓*
- Trend SB300 VS Model: Oxaloacetate ([1]; plasma): ↑*
- Trend SB300 VS Model: Proline ([1]; plasma): ↓*
- Trend SB300 VS Model: Trigonelline ([1]; plasma): ↑**
- Trend SB300 VS Model: Uric acid ([1]; plasma): ↓**
- Trend SB300 VS Model: Uridine ([1]; plasma): ↓**
- Trend SB300 VS Model: Ursodeoxycholic acid (UDCA) ([1]; plasma): ↓*
- body weight ([2]; MCD diet NASH mice, Silybin 300 mg/kg): no effect
- liver/body weight ratio ([2]; MCD diet NASH mice, Silybin 300 mg/kg, P<0.05): moderate decrease
- scores of steatosis, inflammation and ballooning ([2]; MCD diet NASH mice, Silybin treated versus MCD diet group, P<0.01): lower scores
- cytokines levels [2, 3]: significantly restored
- lipid profiles [2, 3]: significantly restored
- oxidative stress levels [2, 3]: significantly restored
- serum transaminase [2, 3]: significantly restored
- Ballooning (histological score) ([2]; Silybin 150 mg/kg oral): 0.96 ± 0.04
- Inflammation (histological score) ([2]; Silybin 150 mg/kg oral): 0.92 ± 0.10
- Steatosis (histological score) ([2]; Silybin 150 mg/kg oral): 1.00 ± 0
- Ballooning (histological score) ([2]; Silybin 300 mg/kg oral): 0.83 ± 0.09
- Inflammation (histological score) ([2]; Silybin 300 mg/kg oral): 0.88 ± 0.12
- Steatosis (histological score) ([2]; Silybin 300 mg/kg oral): 0.92 ± 0.13
- histopathological assessment of liver tissue (AIA rats; H&E liver sections): preserved the normal architecture of hepatocytes with light congestion of central vein
- dyslipidemia (serum lipid profile) (AIA rats; Silybin 200 mg/kg): successfully improved
- ALP level (AIA rats; Silybin 200 mg/kg, P<0.001): markedly reduced
- AST level (AIA rats; Silybin 200 mg/kg, P<0.05): markedly reduced

Source: patent publication US20180289666A1, “FLAVONOLIGNANS FOR TREATMENT OF AUTOIMMUNE INFLAMMATORY DISEASES” (Macau University of Science and Technology, priority 2017, published 2018)
